Assays:
hCXCR1 = molecular target: T1, hCXCR1 (Homo sapiens, UniProt P25024); assay: CXCR1 SPA assay ([125I]-IL-8 binding, hCXCR1-CHO membranes; incl. alternative Biosignal Packard and Euroscreen protocols)
T1 construct: purchased Biosignal / Biosignal Packard; alternatively Euroscreen; host or cells: CHO cells (membranes)
T1 sequence (P25024 1-350): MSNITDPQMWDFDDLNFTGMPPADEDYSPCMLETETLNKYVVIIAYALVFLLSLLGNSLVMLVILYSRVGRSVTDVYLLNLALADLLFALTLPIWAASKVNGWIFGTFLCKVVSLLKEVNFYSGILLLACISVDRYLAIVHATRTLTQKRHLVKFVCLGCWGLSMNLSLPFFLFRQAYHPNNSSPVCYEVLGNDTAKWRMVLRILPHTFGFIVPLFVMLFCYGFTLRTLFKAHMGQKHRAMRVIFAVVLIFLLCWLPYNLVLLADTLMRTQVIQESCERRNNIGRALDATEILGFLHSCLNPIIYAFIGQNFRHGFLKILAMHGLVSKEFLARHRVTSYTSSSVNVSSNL
Description: For each well of a 96 well plate, a reaction mixture of 10 μg hCXCR1-CHO overexpressing membranes (Biosignal) and 200 μg/well WGA-SPA beads (Amersham) in 100 μl was prepared in CXCR1 assay buffer (25 mM HEPES, pH 7.8, 2 mM CaCl2, 1 mM MgCl2, 125 mM NaCl, 0.1% BSA) (Sigma). A 0.4 nM stock of ligand, [125I]-IL-8 (NEN) was prepared in the CXCR1 assay buffer. 20× stock solutions of test compounds were prepared in DMSO (Sigma). […] The above solutions were added to a 96-well assay plate (PerkinElmer) as follows: 10 μl test compound or DMSO, 40 μl CXCR1 assay buffer or IL-8 stock, 100 μl of reaction mixture, 50 μl of ligand stock (Final [Ligand]=0.1 nM).
For each 50 μl reaction, a working stock of 0.25 μg/μl hCXCR1-CHO over-expressing membranes with a specific activity of 0.05 pmol/mg (Biosignal Packard) and 25 μg/μl WGA-SPA beads (Perkin Elmer Life Sciences) was prepared in CXCR1 assay buffer (25 mM HEPES, pH 7.8, 0.1 mM CaCl2, 1 mM MgCl2, 100 mM NaCl) (Sigma). This mixture was incubated on ice for 30 minutes and then centrifuged at 2500 rpm for 5 minutes. The beads and membranes were resuspended in CXCR1 assay buffer to the same concentrations as in the original mixture. […] The assay plates were incubated for 4 hours before cpm/well were determined in a Microbeta Trilux counter (Perkin Elmer Life Sciences). IC50 values were quantified using nonlinear regression analysis in GraphPad Prism. […]

hCXCR2 = molecular target: T2, hCXCR2 (Homo sapiens, UniProt P25025); assay: CXCR2 SPA assay ([125I]-IL-8 binding, hCXCR2-CHO membranes; incl. alternative 50 μl and 200 μl protocols)
T2 construct: purchased Biosignal / Biosignal Packard; host or cells: CHO cells (membranes)
T2 sequence (P25025 1-360): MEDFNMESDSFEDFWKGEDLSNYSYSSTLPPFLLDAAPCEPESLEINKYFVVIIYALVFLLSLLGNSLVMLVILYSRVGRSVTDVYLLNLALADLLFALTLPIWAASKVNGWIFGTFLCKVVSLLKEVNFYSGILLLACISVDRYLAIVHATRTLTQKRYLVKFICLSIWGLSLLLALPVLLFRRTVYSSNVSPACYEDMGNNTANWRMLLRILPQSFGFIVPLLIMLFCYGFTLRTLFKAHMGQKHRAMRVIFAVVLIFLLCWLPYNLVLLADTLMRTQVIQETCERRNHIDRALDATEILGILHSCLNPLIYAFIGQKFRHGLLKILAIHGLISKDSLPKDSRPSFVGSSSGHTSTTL
Description: For each well of a 96 well plate, a reaction mixture of 4 μg hCXCR2-CHO overexpressing membranes (Biosignal) and 200 μg/well WGA-SPA beads (Amersham) in 100 μl was prepared in CXCR2 assay buffer (25 mM HEPES, pH 7.4, 2 mM CaCl2, 1 mM MgCl2). A 0.4 nM stock of ligand, [^125I]-IL-8 (NEN), was prepared in the CXCR2 assay buffer. 20× stock solutions of test compounds were prepared in DMSO (Sigma). A 6× stock solution of GRO-α (R&D) was prepared in CXCR2 assay buffer. […]
For each 50 μl reaction, a working stock of 0.031 μg/μl hCXCR2-CHO over-expressing membranes with a specific activity of 0.4 pmol/mg (Biosignal Packard) and 2.5 μg/μl WGA-SPA beads (Perkin Elmer Life Sciences) was prepared in CXCR2 assay buffer (25 mM HEPES, pH 7.4, 2.0 mM CaCl2, 1 mM MgCl2) (Sigma). […] The assay plates were incubated for 2 hours before cpm/well were determined in a Microbeta Trilux counter (Perkin Elmer Life Sciences). IC50 values were quantified using nonlinear regression analysis in GraphPad Prism. […]
For each 200 μl reaction, a working stock of 0.02 μg/μl hCXCR2—CHO over-expressing membranes with a specific activity of 0.6 pmol/mg (Biosignal Packard) and 2 μg/μl WGA-SPA beads (Perkin Elmer Life Sciences) was prepared in CXCR2 assay buffer (25 mM HEPES, pH 7.4, 2.0 mM CaCl2, 1 mM MgCl2) (Sigma). […] IC50 values were quantified using nonlinear regression analysis in GraphPad Prism.

CCR7 = molecular target: T3, CCR7 (Homo sapiens, UniProt P32248); assay: CCR7 [35S]GTPγS exchange assay (SPA, Ba/F3-CCR7 membranes, 2 nM MIP-3); type: biochemical
T3 construct: expressed in transfected cells; host or cells: Ba/F3 cells (membranes prepared in house)
T3 sequence (P32248 25-378): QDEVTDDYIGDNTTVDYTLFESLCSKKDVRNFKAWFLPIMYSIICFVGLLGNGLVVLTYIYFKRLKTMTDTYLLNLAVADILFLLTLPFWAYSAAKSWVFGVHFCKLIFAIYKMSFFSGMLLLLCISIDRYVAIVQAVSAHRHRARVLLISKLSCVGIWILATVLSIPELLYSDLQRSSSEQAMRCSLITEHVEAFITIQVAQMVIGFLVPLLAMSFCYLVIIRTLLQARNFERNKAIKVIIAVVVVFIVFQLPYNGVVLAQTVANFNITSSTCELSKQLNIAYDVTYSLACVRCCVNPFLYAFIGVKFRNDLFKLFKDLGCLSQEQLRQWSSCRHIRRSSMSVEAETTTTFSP
Description: CCR7 Membrane Preparation.
Ba/F3-CCR7 membranes were prepared as previously described (Hipkin et al., J. Biol. Chem., 272, 1997, 13869-76). Cells were pelleted by centrifugation, incubated in homogenization buffer (10 mM Tris-HCl, 5 mM EDTA, 3 mM EGTA, pH 7.6) and 1 μM PMSF for 30 min. on ice. The cells were then lysed with a Dounce homogenizer using stirrer type RZR3 polytron homogenizer (Caframo, Wiarton, Ont.) with 12 strokes at 900 RPM. The intact cells and nuclei were removed by centrifugation at 500×g for 5 min. The cell membranes in the supernatant were then pelleted by centrifugation at 100,000×g for 30 min. The membranes were then resuspended in glygly buffer (20 mM glycylglycine, 1 mM MgCl2, 250 mM sucrose, pH 7.2), aliquoted, quick frozen and stored at −80° C.
CCR7 [^35S]GTPγS Exchange Assay.
The exchange of guanosine 5′-[γ-^35S]triphospate ([^35S]GTPγS, triethylammonium salt; specific activity=1250 Ci/mmol; NEN Boston, Mass.) was measured using a scintillation proximity assay (SPA) as previously described (Cox, et. al., Mol. Pharmacol., 59, 2001, 707-15). […] Membrane-bound [^35S]GTPγS was measured using a 1450 Microbeta Trilux counter (Wallac, Gaithersburg, Md.).

Structure (SMILES)	Ki (hCXCR1)	Ki (hCXCR2)	EC50 (CCR7)
CC[C@@H](Nc1nsnc1Nc1cccc(C(=O)N(C)C)c1O)c1cc(C(C)C)co1 [Example 1]	808 nM	28 nM	
Cc1ccc([C@H](Nc2nsnc2Nc2cccc(C(=O)N(C)C)c2O)C(C)C)o1 [Example 3]			880 nM
Cc1ccc([C@H](Nc2nsnc2Nc2cccc(C(=O)N(C)C)c2O)C(C)(C)C)o1 [Example 6]		14 nM	22 nM
